Reference: patent US12643913B2, “Mcl-1 inhibitor formulations” (AMGEN INC., priority 2020, dated 2026)
“Also recorded” adds a separate entry of the source. Read-outs that look alike come from different tables or passages of the source.

Columns and labels:
[1] = Moisture sorption profile (DVS); type: physicochemical; conditions: by 95% RH; listed as crystalline hydrate form of AMG 397
Method: Moisture Sorption: Moisture sorption data was collected using a Surface Measurement Systems DVSAdvantage instrument. Equilibrium criteria were set at ±0.001% weight change in 10 minutes with a maximum equilibrium time of 380 minutes.
Moisture Sorption: Moisture sorption data was collected using a Surface Measurement Systems DVSAdvantage instrument. Equilibrium criteria were set at ±0.001% weight change in 10 minutes with a maximum equilibrium time of 360 minutes.

[2] = Pharmacokinetics after oral gavage to male beagle dogs with different pre-treatments (Amgen study 150528); type: in vivo; conditions: 3 mg/kg PO; for Decrease in exposure / bioavailability with change of stomach pH: beagle dogs; for half-life: read-out: T½ (converted); for bioavailability: compared to Phase 1 of the same form, read-out: Relative % F
Method: The pharmacokinetics of AMG 397 were assessed following oral administration to male beagle dogs as either a suspension of the crystalline hydrate form of AMG 397 or an amorphous suspension in 2% HPMC, 0.01% Tween 80. The full protocol is described in Amgen study number 150528. The goal of this study was to determine if the amorphous material would lead to increases in bioavailability and if variability in dosing could be reduced. In addition, oncology patients could be receiving acid-reducing agents as co-medication, so it is important to determine if exposure is reduced with elevated stomach pH and if an amorphous formulation of AMG 397 could overcome the drug-drug interaction (DDI). For the studies below, Form 1 is the crystalline hydrate form of AMG 397 and amorphous is the amorphous form of AMG 397.
(§1) Briefly, during each phase five male beagle dogs were assigned to each group of the study. All animals were fasted for at least eight hours prior to dosing and through the first four hours of blood sample collection for each phase. Food was returned within 30 minutes following collection of the last blood sample at the four-hour collection interval. Each animal in Phase 1, received a single oral (PO) gavage dose of the appropriate test article formulation as outlined in the study design Table 6. Oral gavage dosing formulations were continuously stirred throughout dosing. The gavage tube was rinsed with approximately 10 mL of tap water following dosing (prior to removal of the gavage tube). Following each study phase a 7-day washout period was allowed prior to the dosing of the next phase. The same five dogs were assigned to either group 1 or group 2 formulations for the duration of the study.
(§2) Test Article Administration: A total of 10 male beagle dogs were initially assigned to study. All animals were fasted for at least eight hours prior to dosing and through the first four hours of blood sample collection for each phase, where applicable (food will be returned within 30 minutes following collection of the last blood sample at the four hour collection interval, where applicable). Total fasting time […] 24 hours.
(§3) Each animal in Phase 1, Groups 1 and 2 received a single oral (PO) gavage dose of the appropriate test article formulation as outlined in the following study design table. Oral gavage dosing formulations was continuously stirred throughout dosing. The gavage tube was rinsed with approximately 10 mL of tap water following dosing (prior to removal of the gavage tube). No pre-treatment will be required for Phase 1.
as §3, with “After a 7-day washout period, each” for “Each”, “2,” for “1,”, “land” for “1 and”, “were” for “was”, “Two hours prior to dosing, each animal received two 20 mg (40 mg total) oral tablets of famotidine followed by a 10 mL dose of deionized water.” for “No pre-treatment will be required for Phase 1.”
After another 7-day washout period, each animal in Phase 3, Groups land 2 received a single oral (PO) gavage dose of the appropriate test article formulation as outlined in the following study design table. Oral gavage dosing formulations were continuously stirred throughout dosing. The gavage tube was rinsed with approximately 10 mL of tap water following dosing (prior to removal of the gavage tube). Thirty minutes prior to dosing, each animal received an intramuscular dose of pentagastrin in phosphate buffered saline at a dose level of 0.006 mg/kg and a dose volume of 0.05 mL/kg.
After a final 7-day washout period, each animal in Phase 4, Groups 1 and 2 received a single oral (PO) gavage dose of the appropriate test article formulation as outlined in the following study design table. Oral gavage dosing formulations were continuously stirred throughout dosing. […]

[3] = Clinical observations in the beagle dog PK study; type: in vivo, male beagle dogs; conditions: 3 mg/kg PO, individual dogs, listed as AMG 397 Form 1
Method: as §1, §2
Different pre-treatments were assigned for each phase of the study to mimic several scenarios: • 1. No pre-treatment was administered for Phase 1 as it served as a control. • 2. During Phase 2, at 1 hour 54 minutes to 1 hour 58 minutes prior to dose administration, all animals were pretreated with two 20 mg (40 mg total) oral tablets of famotidine followed by a 10 mL dose of deionized water. […] This was used to determine the role of stomach pH on exposure. • 3. During Phases 3 and 4, at 30 to 38 minutes prior to dose administration, all animals were pretreated with a single intramuscular dose of pentagastrin in phosphate buffered saline, pH 7.4, at a dose level of 0.006 mg/kg and a dose volume of 0.05 mL/kg. The pentagastrin dose was used to ensure that the dogs stomach pH was normalized to pH ˜2.0 as it is known that the dogs stomach pH is often higher than that of humans under resting conditions. • 4. In addition, […], at 1 hour 3 minutes to 1 hour 6 minutes prior to dose administration and 4 hours 10 minutes to 4 hours 11 minutes following dose by oral gavage at a dose level of 3 mg/kg and a dose volume of 4 mL/kg. This final phase was used to study if P-gp played a role in absorption.

[4] = Phase 1, no pre-treatment, male beagle dogs
[5] = Phase 2, famotidine pre-treatment (stomach pH ~6.5), male beagle dogs
[6] = male, beagle, dog, plasma, po, 3 mg/kg, Phase 3, pentagastrin pre-treatment (stomach pH ~2.0), male beagle dogs
[7] = male, beagle, dog, plasma, po, 3 mg/kg, Phase 4, pentagastrin pre-treatment + P-gp inhibitor GF120918, male beagle dogs

Moisture sorption weight gain [1]: 3.3%
AUCt [2, 4]: 5.5 µM·h
Cl/F [2, 4]: 41.7 mL/min/kg
Cmax [2, 4]: 230 nM
Tmax [2, 4]: 12.4 h
AUCt [2, 5]: 6.3 µM·h
Cl/F [2, 5]: 43.3 mL/min/kg
Cmax [2, 5]: 260 nM
Cl/F ([2]; Phase 3, pentagastrin pre-treatment (stomach pH ~2.0), male beagle dogs): 13.8 mL/min/kg
Decrease in exposure / bioavailability with change of stomach pH ([2]; listed as crystalline hydrate form of AMG 397, 3 mg/kg): ≤ 2 fold
Decrease in exposure / bioavailability with change of stomach pH ([2]; listed as crystalline hydrate form, 3 mg/kg): 2 fold
half-life ([2]; male, beagle, dog, plasma, po, 3 mg/kg, Phase 1, no pre-treatment, male beagle dogs): 17.3 h
bioavailability ([2]; male, beagle, dog, plasma, po, 3 mg/kg, Phase 1, no pre-treatment): 100%
Tmax ([2]; male, beagle, dog, plasma, po, 3 mg/kg, Phase 2, famotidine pre-treatment (stomach pH ~6.5), male beagle dogs, read-out: Tmax): 12.8 h
half-life ([2]; male, beagle, dog, plasma, po, 3 mg/kg, Phase 2, famotidine pre-treatment (stomach pH ~6.5), male beagle dogs): 16.5 h
bioavailability ([2]; male, beagle, dog, plasma, po, 3 mg/kg, Phase 2, famotidine pre-treatment): 113%
AUC(0-t) [2, 6]: 11.3 µM·h
Cmax [2, 6]: 450 nM
Tmax ([2]; male, beagle, dog, plasma, po, 3 mg/kg, Phase 3, pentagastrin pre-treatment (stomach pH ~2.0), male beagle dogs, read-out: Tmax): 13.2 h
half-life [2, 6]: 23.3 h
AUC(0-t) [2, 7]: 16.3 µM·h
CL/F [2, 7]: 5.17 mL/min/kg
Cmax [2, 7]: 600 nM
Tmax ([2]; male, beagle, dog, plasma, po, 3 mg/kg, Phase 4, pentagastrin pre-treatment + P-gp inhibitor GF120918, male beagle dogs, read-out: Tmax): 11.6 h
half-life [2, 7]: 25 h
Positive clinical findings (observation) ([3]; Phase 2 (Days 8 to 14), famotidine pre-treatment): Limb function impaired
Positive clinical findings (observation) ([3]; Phase 4 (Days 22 to 24), pentagastrin pre-treatment and inhibitor GF120918 pre- and post-treatment): Large amount of white,
Structure (SMILES): CO[C@]1(CN2CCN3CCCC[C@@H]3C2)/C=C/C[C@H](C)[C@@H](C)S(=O)(=O)NC(=O)c2ccc3c(c2)N(C[C@@H]2CC[C@H]21)C[C@@]1(CCCc2cc(Cl)ccc21)CO3 [AMG 397 Crystalline Hydrate]
Positive clinical findings (observation) ([3]; Phase 3 (Days 15 to 21), pentagastrin pre-treatment): White, frothy vomitus; also recorded: Limb function impaired; also recorded: Wet hair on entire body; also recorded: Inappetence
